Read-outs that look alike come from different tables or passages of the source.
Legend:
5-LOX [1] = target: T1, 5-LOX (Homo sapiens, UniProt P09917); details: supplementary csv; # published in ref Pein et al.4; read-out: IC50 (5-LOX PMNL); cited from earlier work
T1 sequence (P09917 1-674): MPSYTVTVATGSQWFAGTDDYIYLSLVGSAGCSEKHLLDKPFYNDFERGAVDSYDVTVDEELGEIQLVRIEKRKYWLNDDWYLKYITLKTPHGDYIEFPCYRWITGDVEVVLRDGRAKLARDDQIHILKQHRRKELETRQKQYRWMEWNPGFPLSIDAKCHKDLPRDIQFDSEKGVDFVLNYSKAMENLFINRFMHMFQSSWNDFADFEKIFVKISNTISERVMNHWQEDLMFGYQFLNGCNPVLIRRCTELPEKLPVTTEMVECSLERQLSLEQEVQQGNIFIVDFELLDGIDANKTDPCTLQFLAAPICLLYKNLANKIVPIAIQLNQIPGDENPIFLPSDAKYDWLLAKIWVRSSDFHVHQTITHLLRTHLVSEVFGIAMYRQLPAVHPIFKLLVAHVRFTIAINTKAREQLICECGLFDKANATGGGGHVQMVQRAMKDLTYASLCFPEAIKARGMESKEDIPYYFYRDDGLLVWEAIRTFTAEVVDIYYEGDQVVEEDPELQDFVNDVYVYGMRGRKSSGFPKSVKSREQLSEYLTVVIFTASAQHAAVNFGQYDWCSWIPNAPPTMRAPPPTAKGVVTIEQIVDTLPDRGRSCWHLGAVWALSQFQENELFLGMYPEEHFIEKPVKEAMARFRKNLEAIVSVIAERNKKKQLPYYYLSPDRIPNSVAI

5-LOX [2] = target: T1, 5-LOX; assay: 5-LOX product formation in activated PMNL; details: for remaining activity at 3 µM: PMNL;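 on all read-outs here: freshly isolated human PMNL in PBS pH 7.4 plus glucose, preincubated 10 min at 37 °C with compound, 5-LOX products (all-trans LTB4 isomers, 5-HETE) quantified by RP-HPLC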
Method: These volunteers regularly donated blood (every 8–12 weeks) and were physically inspected by a clinician.
Erythrocytes were removed by dextran sedimentation and hypotonic lysis. PMNL were obtained from the cell pellet and platelets from the supernatant.
Freshly isolated PMNL (5 × 10^6) suspended in PBS pH 7.4 with 1 mg/mL glucose or freshly withdrawn human whole blood were preincubated with the test compounds for 10 min (or as indicated) at 37 °C. […] The reaction was stopped with an equal volume of methanol.

5-LOX [3] = target: T1, 5-LOX; set-up: made in house; host or cells: E. coli Bl21 (DE3); details: supplementary csv; # published in ref Pein et al.4; read-out: IC50 (5-LOX enzyme); cited from earlier work
5-LOX [4] = target: T1, 5-LOX; assay: Cell-free 5-LOX activity (isolated human recombinant enzyme)
Method: Human recombinant 5-LOX was expressed in E. coli Bl21 (DE3) cells that were transformed with pT3–5LOX (wt 5-LOX), 5-LOX_3W (triple mutation of Trp102Ala/Trp13Ala/Trp75Ala), or 5-LOX_R (single mutant of the Arg101Asp plasmid) and purified on an ATP-agarose column (Econo-Pac, Bio-Rad, Hercules, CA) by affinity chromatography.[6],[75]
Purified 5-LOX (0.5 μg in PBS pH 7.4 containing 1 mM EDTA and 1 mM ATP) was preincubated with the vehicle (DMSO) or test compounds for 10 min and prewarmed at 37 °C.

[5] = test system: reconstructed human epidermis (RHE); assay: Experimental atopic dermatitis in reconstructed human epidermis (RHE); format: cell-based; details: 1 μM, control
Method: Compound 27a was evaluated in an inflammatory model of RHE by Synelvia S.A.S. (Labège, France) according to the company’s protocol.[88] In brief, primary human keratinocytes were used to generate RHE on polycarbonate filters as described.[88] RHE was allowed to acclimate for 6 days (5% CO2, 37 °C) prior to incubation with 27a (5, 10, 25 μM), dexamethasone (1 μM), or vehicle (0.05% DMSO), and a proinflammatory cytokine cocktail for 4 days at 5% CO2 and 37 °C. The culture medium including compounds and cytokines was changed on days 6, 8, and 10. Each culture condition was repeated three times. Acute cytotoxicity of 27a was excluded at the concentrations studied within 24 h by measuring the mitochondrial dehydrogenase activity (MTT assay).
Morphological changes (i.e., spongiosis and the formation of keratohyalin granules) were evaluated for sections of paraffin-embedded RHEs after hematoxylin-eosin staining.[89] The permeability of the skin barrier was estimated from the transepidermal water loss at the RHE surface.[90] The surface pH was determined with a pH electrode as reported.[89] The permeability of the stratum corneum was addressed by applying Lucifer yellow onto the RHE surface and inspecting the penetration by fluorescence microscopy.[88] TSLP and IL-8 levels were analyzed by ELISA (according to the specifications of Synelvia S.A.S.) in the culture medium on day 2 and day 4 after addition of cytokines, respectively.

[6] = test system: zymosan-induced murine peritonitis; assay: Zymosan-induced peritonitis in mice; format: in vivo; details: 3 mg/kg p.o., 30 min post zymosan
Method: Male CD-1 mice (33–39 g, 6–8 weeks, Charles River Laboratories; Calco, Italy) and female BALB/c mice (20 g, 8 weeks, Charles River Laboratories) were fed with standard rodent chow and water and acclimated for 4 days at a 12 h light and 12 h dark schedule in a constant air-conditioned environment (21 ± 2 °C). Mice were randomly assigned to groups, and experiments were carried out during the light phase.
Zymosan (2 mg/mL in saline, i.p., 0.5 mL, Sigma-Aldrich) was injected at 30 min (i.p.) or 60 min (p.o.) post compound administration. Mice were sacrificed by inhalation of CO2 after another 30 min to determine LTC4 levels, lipid mediator profiles, metabolites, and vascular permeability and after 4 h to analyze LTB4 levels and cell infiltration.[72] Plasma and peritoneal exudates were collected, and cells were counted in exudates after trypan blue staining. Vascular permeability was measured by injection of Evans blue dye (40 mg/kg in saline, 0.3 mL, Sigma-Aldrich) into the tail vain directly before peritonitis induction.[72] The exudate was centrifuged (3000g, 5 min), and the absorbance was measured at 610 nm (DU730 spectrophotometer, Beckman Coulter, Krefeld, Germany). Levels of LTB4 and cysteinyl-LTs (dominated by LTC4) were quantified in the exudate by ELISA (Enzo Life Sciences, Lörrach, Germany) according to the manufacturer’s instructions. Compound 27a, its metabolites, and lipid mediators were extracted and analyzed by UPLC-MS/MS.

[7] = read-out: 5-LOX PMNL residual activity at 3 µM (Table S1)
[8] = read-out: 5-LOX enzyme residual activity at 1 µM (Table S1)
[9] = read-out: 5-LOX PMNL residual activity at 3 μM
[10] = read-out: 5-LOX enzyme residual activity at 1 μM

SMILES | IC50 (5-LOX [1]) [nM] | remaining activity at 3 µM (5-LOX [2]; [7]) [%] | IC50 (5-LOX [3]) [nM] | remaining activity at 1 µM (5-LOX [4]; [8]) [%] | other results
Cc1c(C)c2c(c(C)c1O)CC[C@@](C)(CCC[C@H](C)CCC[C@H](C)CCCC(C)C)O2 [Compound 1a, α-tocopherol] | > 3000 | 88.6 ± 10.5 | > 1000 | 86.1 ± 8.3 | –
Cc1cc(O)c(C)c2c1O[C@](C)(CCC[C@H](C)CCC[C@H](C)CCCC(C)C)CC2 [Compound 1b] | > 3000 | 79.6 ± 6.1 | 750 ± 150 | 32.8 ± 9 | –
Cc1c(O)cc2c(c1C)O[C@](C)(CCC[C@H](C)CCC[C@H](C)CCCC(C)C)CC2 [Compound 1c] | > 3000 | 78.5 ± 13.6 | 910 ± 150 | 47 ± 4.5 | –
Cc1cc(O)cc2c1O[C@](C)(CCC[C@H](C)CCC[C@H](C)CCCC(C)C)CC2 [Compound 1d, δ-tocopherol] | > 3000 | 107 ± 3.2 | – | 43.3 ± 7.2 | IC50 (5-LOX [4]): 600 ± 250 nM
CC(C)=CCC/C(C)=C/CC/C(C)=C/CC[C@]1(C)CCc2c(C)c(O)c(C)c(C)c2O1 [Compound 6a] | > 3000 | 75.5 ± 4.5 | – | 16.9 ± 6.6 | –
CC(C)=CCC/C(C)=C/CC/C(C)=C/CC[C@]1(C)CCc2c(C)c(O)cc(C)c2O1 [Compound 6b] | 2110 ± 360 | 41.4 ± 8 | 190 ± 30 | 6.4 ± 3.2 | –
CC(C)=CCC/C(C)=C/CC/C(C)=C/CC[C@]1(C)CCc2cc(O)c(C)c(C)c2O1 [Compound 6c] | > 3000 | 73.5 ± 1.2 | 200 ± 60 | 6.4 ± 3.2 | –
CC(C)=CCC/C(C)=C/CC/C(C)=C/CC[C@]1(C)CCc2cc(O)cc(C)c2O1 [Compound 6d, δ-tocotrienol] | > 3000 | 74.9 ± 8 | 170 ± 100 | 6.7 ± 3.1 | –
Cc1c(C)c2c(c(C)c1O)CC[C@@](C)(CCCC(C)CCCC(C)CCCC(C)CO)O2 (stereo partly drawn) [Compound 9a, α-T-13′-CH2OH] | 190 ± 50 | 21.6 ± 2.5 | 350 ± 40 | 1.5 ± 0.4 | –
Cc1cc(O)cc2c1O[C@](C)(CCCC(C)CCCC(C)CCCC(C)CO)CC2 (stereo partly shown) [Compound 9b] | 540 ± 180 | 22.6 ± 2.4 | 120 ± 40 | 2.1 ± 0.3 | –
C/C(=C\CC/C(C)=C/CC/C(C)=C/CC[C@]1(C)CCc2c(C)c(O)c(C)c(C)c2O1)CO [Compound 10a] | 270 ± 100 | 13.2 ± 2 | 110 ± 10 | 0.2 ± 0.1 | –
C/C(=C\CC/C(C)=C/CC/C(C)=C/CC[C@]1(C)CCc2c(C)c(O)cc(C)c2O1)CO [Compound 10b] | 380 ± 90 | 7.7 ± 1.3 | 90 ± 30 | 0.2 ± 0.1 | –
C/C(=C\CC/C(C)=C/CC/C(C)=C/CC[C@]1(C)CCc2cc(O)cc(C)c2O1)CO [Compound 10c] | 1260 ± 330 | 8.8 ± 1.9 | 150 ± 50 | 2.7 ± 1.5 | –
C/C(=C/CC/C(C)=C/CC/C(C)=C/CC[C@]1(C)CCc2cc(O)c(C)c(C)c2O1)CO [Compound 10d] | 140 ± 20 | 1.1 ± 1.1 | 120 ± 30 | 0 | –
C/C(=C/CC/C(C)=C/CC/C(C)=C/CC[C@]1(C)CCc2cc(O)cc(C)c2O1)CO [Compound 10e, δ-(Z)-deoxyamplexichromanol] | 220 ± 40 | 2 ± 0.2 | 140 ± 30 | 0.3 ± 0.2 | –
COc1ccc(C2OCC(=CCC/C(C)=C/CC/C(C)=C/CC[C@]3(C)CCc4c(C)c(O)c(CO)c(C)c4O3)CO2)cc1OC (stereo partly drawn) [Compound 46, (2R)-2-((3E,7E)-11-(2-(3,4-Dimethoxyphenyl)-1,3-dioxan-5-ylidene)-4,8-dimethylundeca-3,7-dien-1-yl)-7-(hydroxymethyl)-2,5,8-trimethylchroman-6-ol] | – | – | – | – | IC50 (5-LOX [2]): 390 ± 180 nM; remaining activity at 3 µM (5-LOX [2]; [9]): 22.2 ± 8.8%; IC50 (5-LOX [4]): 90 nM; remaining activity at 1 µM (5-LOX [4]; [10]): 0.7 ± 0.1%
COc1ccc(C2OCC(=CCC/C(C)=C/CC/C(C)=C/CC[C@]3(C)CCc4c(C)c(O)c(C=O)c(C)c4O3)CO2)cc1OC (stereo partly shown) [Compound 47] | – | – | – | – | remaining activity at 3 µM (5-LOX [2]; [9]): 84 ± 8.5%; IC50 (5-LOX [2]; read-out: 5-LOX PMNL IC50, 5-LOX product formation in activated PMNL, mean ± SEM): > 3000 nM; IC50 (5-LOX [4]; read-out: 5-LOX enzyme IC50, isolated human 5-LOX, cell-free, mean ± SEM): > 1000 nM; remaining activity at 1 µM (5-LOX [4]; [10]): 58.7 ± 4.6%
C/C(=C\CC/C(C)=C/CC[C@]1(C)CCc2c(CO)c(O)cc(C)c2O1)CCC=C1COC(c2ccc([N+](=O)[O-])cc2)OC1 (stereo partly drawn) [Compound 48, (2R)-2-((3E,7E)-4,8-Dimethyl-11-(2-(4-nitrophenyl)-1,3-dioxan-5-ylidene)undeca-3,7-dien-1-yl)-5-(hydroxymethyl)-2,8-dimethylchroman-6-ol] | – | – | – | – | IC50 (5-LOX [2]): 490 ± 130 nM; remaining activity at 3 µM (5-LOX [2]; [9]): 15.4 ± 1.9%; IC50 (5-LOX [4]): 210 ± 130 nM; remaining activity at 1 µM (5-LOX [4]; [10]): 14 ± 3.2%
C[C@@H]1C[C@H]2[C@@H]3CCC4=CC(=O)C=C[C@]4(C)[C@@]3(F)[C@@H](O)C[C@]2(C)[C@@]1(O)C(=O)CO [Dexamethasone, reference compound] | – | – | – | – | Cytokine-induced responses in RHE [5]: suppressed these cytokine-induced responses
CC(c1cc2ccccc2s1)N(O)C(N)=O (stereo not shown) [zileuton, reference compound] | – | – | – | – | Cysteinyl-LTs in the exudate [6]: did not evoke a stronger effect

— PMC8365602 (Journal of Medicinal Chemistry, 2021)
